{"source": "patent US10632181B2", "about": "“Composition, containing RGD motif-containing peptide or fragment thereof, for treating burns and glaucoma, alleviating skin wrinkles, and promoting hair growth” (HUONS CO., LTD., priority 2014, dated 2020)", "key": {"[1]": {"test": "Hair growth test: body weight", "format": "in vivo", "settings": "skin", "method": "(§1) This test was conducted to assess the influence on hair growth of C57BL/6 mouse when 4 types of test substances, HU024 (SEQ ID NO:2), HU025 (SEQ ID NO:3), HU026 (SEQ ID NO:4), and HU027 (SEQ ID NO:5), were applied to the skin for 14 days.\n(§2) The group design was set to negative control (sterile water for injection G1), test substance HU024 (SEQ ID NO:2) 20 ug/head/day (G2), test substance HU024 (SEQ ID NO:2) 60 ug/head/day (G3), test substance HU025 (SEQ ID NO:3) 20 ug/head/day (G4), test substance HU025 (SEQ ID NO:3) 60 ug/head/day (G5), test substance HU026 (SEQ ID NO:4) 20 ug/head/day (G6), test substance HU026 (SEQ ID NO:4) 60 ug/head/day (G7), test substance HU027 (SEQ ID NO:5) 20 ug/head/day (G8), test substance HU027 (SEQ ID NO:5) 60 ug/head/day (G9) and positive control minoxyl 3% (G10) administered groups. Each group had 10 animals.\n(§3) After the animal was put under anesthesia using zoletil (1 mL/kg, i.p), the back of the animal was primarily shaved using a depilator, and Veet depilatory was evenly applied on the back. After about 5 minutes, the applied site was cleaned up using gauze moistened with sterile water for injection. Only animal whose shaved back was scarlet in color was used for group separation. The test substance was applied to the same site daily once per day, 7 times per week for 14 days, and the test substance was evenly applied to the shaved site (on the back) by rubbing with a glass rod about 10 times.\nThe test item was measurements of dead animal, general syndrome, weight change, hair growing area and hair weight, and comparison with negative control was conducted.\n(§4) The measurement results were analyzed using SPSS (ver. 10.1K), Duncan t-test for weight changes was conducted through one-way analysis of variance, hair weight was compared between groups using Student's t-test, and hair growing area was compared between groups through nonparametric multiple comparison procedures Whitney-Mann methods. P<0.05 was determined to be statistically significant."}, "[2]": {"tested_on": "hair growth of C57BL/6 mouse", "test": "Hair growth test: hair weight", "format": "in vivo", "method": "as §1, §2, §3\nThe hair growing area (%) relative to the test substance-applied area was measured and determined, and Image analyzer program (Image Pro Plus ver. 6.3, Cybermetics, USA) was used to measure. It was measured on the 1st, 3rd, 7th, 10th and 14th days after test substance administration. Imaging was performed together with the measurements on the date when the hair area was measured. On the next day after the end of application, the animals were killed by CO2 gas, and hair on the hair growing area was removed by a depilator and hair weight was measured.\nas §4"}, "[3]": {"test": "Burn treatment test: body weight and abnormal syndrome", "format": "in vivo, SD (Sprague-Dawley) rats", "settings": "for BODY WEIGHTS: skin", "method": "(§5) The experiment was carried out with 55 male SD (Sprague-Dawley) rats that were divided into […] groups: 5 rats for normal group (1 group, G1), 9-10 rats for negative control (1 group, G2), 30 rats for experimental group (3 groups, 10 rats in each group, G3, G4, G5), and 9-10 rats for positive control (1 group, G6). In the remaining groups except normal group, burned male SD rats was used for experiment. After SD rats were anesthesized, 2-degree burns, 2 cm in diameter, were induced on the SD rats using an aluminum electric soldering iron.\n(§6) Test substance HU022 (SEQ ID NO:1) (G3, G4, G5), normal saline solution (G2) and Fiblast (G6) were applied to the skin of the burned male SD rats repeatedly once a day seven times a week for 7 days. Fiblast was applied to control group (G6) in 10 μg/dose/head, and the experimental group was divided into 3 groups and test substance was applied to each group in 3.3 μg/dose/head (G3), 10 μg/dose/head (G4), and 30 μg/dose/head (G5).\n(§7) With the measurement results, parametric comparison determined significance via Student's t-test and One-Way ANOVA, and significance testing relative to negative control was conducted. Furthermore, with the histopathology test results of burns, Kruskal-Wallis' H-test was conducted, and when significance between groups was identified, comparison between groups was performed through Mann-Whitney U-test. The computation program for statistics was SPSS 10.1 K. P<0.05 was determined to be statistically significant."}, "[4]": {"tested_on": "2-degree burns of male SD rats", "test": "Burn treatment test: burn wound area", "format": "in vivo, SD (Sprague-Dawley) rats", "method": "as §5, §6\nAfter burn was induced, imaging was performed before test substance was applied, and imaging was performed on 1st, 4th, 8th, 11th, and 15th days, and after imaging, test substance was applied and the applied site was covered with gauze and wrapped with tegaderm. Furthermore, images taken for measuring the burn wound area were analyzed using Image analyzer program.\nas §7"}}, "note": "Positions of bridges follow the written chain, without caps; N, C: chain ends. No end group written: not given here.", "data": [{"substance": "HU024 (RPTRGDCDLPEFCPG; disulfide 7-13; listed as Homo sapiens)", "values": [{"measurement": "BODY WEIGHTS", "setting": "[1]; 20 ug/head/day, Day 1", "result": "21.34 ± 0.60", "unit": "g"}, {"measurement": "BODY WEIGHTS", "setting": "[1]; 20 ug/head/day, Day 7", "result": "22.64 ± 0.76", "unit": "g"}, {"measurement": "BODY WEIGHTS", "setting": "[1]; 20 ug/head/day, Day 11", "result": "24.15 ± 0.86", "unit": "g"}, {"measurement": "BODY WEIGHTS", "setting": "[1]; 60 ug/head/day, Day 1", "result": "21.54 ± 0.53", "unit": "g"}, {"measurement": "BODY WEIGHTS", "setting": "[1]; 60 ug/head/day, Day 7", "result": "23.02 ± 0.74", "unit": "g"}, {"measurement": "BODY WEIGHTS", "setting": "[1]; 60 ug/head/day, Day 11", "result": "24.30 ± 1.08", "unit": "g"}, {"measurement": "HAIR WEIGHTS", "setting": "[2]; 20 ug/head/day for 14 days", "result": "0.016 ± 0.003", "unit": "g"}, {"measurement": "HAIR WEIGHTS", "setting": "[2]; 60 ug/head/day for 14 days", "result": "0.023 ± 0.008", "unit": "g"}]}, {"substance": "HU022: polypeptide consisting of 452nd-509th amino acids of ADAM 15 (GenBank AAH14566.1), 58 amino acids; commercial product (EYEGENE Inc.)", "values": [{"measurement": "BODY WEIGHTS", "setting": "[3]; 3.3 μg/head/day, Day 1", "result": "261.24 ± 10.05", "unit": "g"}, {"measurement": "BODY WEIGHTS", "setting": "[3]; 3.3 μg/head/day, Day 8", "result": "269.41 ± 17.57", "unit": "g"}, {"measurement": "BODY WEIGHTS", "setting": "[3]; 3.3 μg/head/day, Day 15", "result": "300.31 ± 20.36", "unit": "g"}, {"measurement": "BODY WEIGHTS", "setting": "[3]; 10 μg/head/day, Day 1", "result": "260.59 ± 9.27", "unit": "g"}, {"measurement": "BODY WEIGHTS", "setting": "[3]; 10 μg/head/day, Day 8", "result": "267.86 ± 5.20", "unit": "g"}, {"measurement": "BODY WEIGHTS", "setting": "[3]; 10 μg/head/day, Day 15", "result": "296.55 ± 8.86", "unit": "g"}, {"measurement": "BODY WEIGHTS", "setting": "[3]; 30 μg/head/day, Day 1", "result": "257.94 ± 9.23", "unit": "g"}, {"measurement": "BODY WEIGHTS", "setting": "[3]; 30 μg/head/day, Day 8", "result": "259.49 ± 15.34", "unit": "g"}, {"measurement": "BODY WEIGHTS", "setting": "[3]; 30 μg/head/day, Day 15", "result": "284.87 ± 17.06", "unit": "g"}, {"measurement": "abnormal syndrome after application", "setting": "[3]; burned male SD rats, skin application", "result": "any abnormal syndrome was not observed"}, {"measurement": "BURN WOUNDED AREA", "setting": "[4]; 3.3 μg/head/day, Day 1", "result": "4.8 ± 0.8", "unit": "cm^2"}, {"measurement": "BURN WOUNDED AREA (%)", "setting": "[4]; 3.3 μg/head/day, Day 1", "result": "100.0 ± 16.3", "unit": "%"}, {"measurement": "BURN WOUNDED AREA", "setting": "[4]; 3.3 μg/head/day, Day 4", "result": "3.8 ± 0.6", "unit": "cm^2"}, {"measurement": "BURN WOUNDED AREA (%)", "setting": "[4]; 3.3 μg/head/day, Day 4", "result": "79.2 ± 13.571", "unit": "%"}, {"measurement": "BURN WOUNDED AREA", "setting": "[4]; 3.3 μg/head/day, Day 8", "result": "2.9 ± 0.6", "unit": "cm^2"}, {"measurement": "BURN WOUNDED AREA (%)", "setting": "[4]; 3.3 μg/head/day, Day 8", "result": "60.8 ± 11.9", "unit": "%"}, {"measurement": "BURN WOUNDED AREA", "setting": "[4]; 3.3 μg/head/day, Day 11", "result": "2.5 ± 0.7", "unit": "cm^2"}, {"measurement": "BURN WOUNDED AREA (%)", "setting": "[4]; 3.3 μg/head/day, Day 11", "result": "51.6 ± 15.7", "unit": "%"}, {"measurement": "BURN WOUNDED AREA", "setting": "[4]; 3.3 μg/head/day, Day 15", "result": "1.9 ± 0.6", "unit": "cm^2"}, {"measurement": "BURN WOUNDED AREA (%)", "setting": "[4]; 3.3 μg/head/day, Day 15", "result": "40.1 ± 12.8", "unit": "%"}, {"measurement": "BURN WOUNDED AREA", "setting": "[4]; 10 μg/head/day, Day 1", "result": "4.3 ± 0.9", "unit": "cm^2"}, {"measurement": "BURN WOUNDED AREA (%)", "setting": "[4]; 10 μg/head/day, Day 1", "result": "100.0 ± 23.0", "unit": "%"}, {"measurement": "BURN WOUNDED AREA", "setting": "[4]; 10 μg/head/day, Day 4", "result": "3.6 ± 0.8", "unit": "cm^2"}, {"measurement": "BURN WOUNDED AREA (%)", "setting": "[4]; 10 μg/head/day, Day 4", "result": "82.7 ± 18.0", "unit": "%"}, {"measurement": "BURN WOUNDED AREA", "setting": "[4]; 10 μg/head/day, Day 8", "result": "2.9 ± 0.5", "unit": "cm^2"}, {"measurement": "BURN WOUNDED AREA (%)", "setting": "[4]; 10 μg/head/day, Day 8", "result": "68.2 ± 12.3", "unit": "%"}, {"measurement": "BURN WOUNDED AREA", "setting": "[4]; 10 μg/head/day, Day 11", "result": "2.4 ± 0.3", "unit": "cm^2"}, {"measurement": "BURN WOUNDED AREA (%)", "setting": "[4]; 10 μg/head/day, Day 11", "result": "56.8 ± 7.7", "unit": "%"}, {"measurement": "BURN WOUNDED AREA", "setting": "[4]; 10 μg/head/day, Day 15", "result": "2.2 ± 0.4", "unit": "cm^2"}, {"measurement": "BURN WOUNDED AREA (%)", "setting": "[4]; 10 μg/head/day, Day 15", "result": "51.9 ± 8.9", "unit": "%"}, {"measurement": "BURN WOUNDED AREA", "setting": "[4]; 30 μg/head/day, Day 1", "result": "5.2 ± 0.4", "unit": "cm^2"}, {"measurement": "BURN WOUNDED AREA (%)", "setting": "[4]; 30 μg/head/day, Day 1", "result": "100.0 ± 7.0", "unit": "%"}, {"measurement": "BURN WOUNDED AREA", "setting": "[4]; 30 μg/head/day, Day 4", "result": "3.5 ± 0.5", "unit": "cm^2"}, {"measurement": "BURN WOUNDED AREA (%)", "setting": "[4]; 30 μg/head/day, Day 4", "result": "67.6 ± 9.3", "unit": "%"}, {"measurement": "BURN WOUNDED AREA", "setting": "[4]; 30 μg/head/day, Day 8", "result": "2.9 ± 0.3", "unit": "cm^2"}, {"measurement": "BURN WOUNDED AREA (%)", "setting": "[4]; 30 μg/head/day, Day 8", "result": "55.9 ± 5.1", "unit": "%"}, {"measurement": "BURN WOUNDED AREA", "setting": "[4]; 30 μg/head/day, Day 11", "result": "2.3 ± 0.1", "unit": "cm^2"}, {"measurement": "BURN WOUNDED AREA (%)", "setting": "[4]; 30 μg/head/day, Day 11", "result": "43.9 ± 2.6", "unit": "%"}, {"measurement": "BURN WOUNDED AREA", "setting": "[4]; 30 μg/head/day, Day 15", "result": "1.8 ± 0.4", "unit": "cm^2"}, {"measurement": "BURN WOUNDED AREA (%)", "setting": "[4]; 30 μg/head/day, Day 15", "result": "35.6 ± 8.4", "unit": "%"}]}]}
